Reference: US7763615B2, “Ecteinascidin analogs for use as antitumour agents” (priority 2001, dated 2010)

Tests used:
A498 = assay: cells; assay type: cell-based; settings: Homo sapiens
In short: (§1)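 Readout: SRB OD490, triplicate wells. Setup: 5×10^3 cells/well, RPMI 1640 + 10% FBS, 37° C, 5% CO2; 18 h pre-attachment; 48 h sample exposure, 10 to 10^−8 μg/ml. Outputs GI, TGI (cytostatic), LC (cytotoxic).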

A549 = assay: cells; assay type: cell-based; settings: Homo sapiens, A549, 48 h
In short: as §1

DU145 = assay: cells; assay type: cell-based; settings: Homo sapiens, DU-145, 48 h
In short: as §1

HT29 = assay: cells; assay type: cell-based; settings: Homo sapiens, HT-29, 48 h
In short: as §1

MB231 = assay: cells; assay type: cell-based; settings: Homo sapiens
In short: as §1

MCF = assay: cells; assay type: cell-based; settings: Homo sapiens
In short: as §1

MEL-28 = assay: cells; assay type: cell-based; settings: Homo sapiens, SK-MEL-28, 48 h
In short: as §1

SW-620 = assay: cells; assay type: cell-based; settings: Homo sapiens
In short: as §1

[1] = system: AML-12, normal mouse liver cells; settings: 24 h
[2] = system: NRK-52E, normal rat kidney cells; settings: 24 h
Description: In order to assess the cytotoxicity of the drugs to normal cells, we used 96 well plates plated at a density of 5000 cells per well (except for the FDC-P1 which were plated at 12,000 cells per well) with normal cell lines (ATCC, Table 1) maintained as per the directions of the ATCC: AML-12, normal mouse liver cells; NRK-52E, normal rat kidney cells; L8, normal rat skeletal muscle cells; FDC-P1, normal mouse myelogeous stem cells; and H9c2 (2-1), normal rat cardiac muscle cells. The cells in each plate were permitted to settle overnight before adding the test drug.
To each well (100 μl medium) 10 μl of drug in media was added at varying concentrations (1×10-10-0.01 mg/ml final concentration) and further incubated overnight at 37° C. with 5% CO2. After 24 h the following assays were performed. All experiments were repeated at least 3 times and were assayed in duplicate.
MTS assay (CellTiter 96 aqueous) was performed according to the manufacturer's (Promega) directions (for all cell types). Cell viability (mitochondrial activity) is determined via enzymatic conversion of the formazan substrate.

[3] = system: L8, normal rat skeletal muscle cells; settings: 24 h
[4] = system: FDC-P1, normal mouse myelogeous stem cells; settings: 24 h
[5] = system: H9c2 (2-1), normal rat cardiac muscle cells; settings: 24 h

COc1c(C)cc2c(c1O)[C@@H]1C3[C@@H]4SC[C@]5(NCCc6c5[nH]c5ccccc65)C(=O)COC[C@@H](c5c6c(c(C)c(OC(C)=O)c54)OCO6)N3[C@@H](O)[C@H](C2)N1C (some centres unmarked) [Compound 26]
CC50 (A498; A498, 48 h, read-out: LC50): 26.5 nM | GI50 (A498; A498, 48 hours exposure, SRB): 2.65 nM | IC (TGI) (A498; A498, 48 hours exposure, SRB): 6.62 nM | GI50 (A549; A549, 48 hours exposure, SRB, read-out: GI50): 2.65 nM | IC (TGI) (A549; A549, 48 hours exposure, SRB, read-out: TGI): 3.97 nM | CC50 (A549; read-out: LC50, A549, 48 hours exposure, SRB): 13.2 nM | GI50 (DU145; DU145, 48 hours exposure, SRB): 2.65 nM | IC (TGI) (DU145; DU145, 48 hours exposure, SRB): 3.97 nM | CC50 (DU145; read-out: LC50, DU145, 48 hours exposure, SRB): 10.6 nM | GI50 (HT29; HT29, 48 hours exposure, SRB): 3.97 nM | IC (TGI) (HT29; HT29, 48 hours exposure, SRB): 7.95 nM | CC50 (HT29; read-out: LC50, HT29, 48 hours exposure, SRB): 13.2 nM | CC50 (MB231; 48 h, read-out: LC50): 13.2 nM | GI50 (MB231; MB231, 48 hours exposure, SRB): 2.65 nM | IC (TGI) (MB231; MB231, 48 hours exposure, SRB, read-out: TGI): 5.3 nM | CC50 (MCF; 48 h, read-out: LC50): 11.9 nM | GI50 (MCF; MCF, 48 hours exposure, SRB): 2.65 nM | IC (TGI) (MCF; MCF, 48 hours exposure, SRB, read-out: TGI): 5.3 nM | GI50 (MEL-28; MEL-28, 48 hours exposure, SRB): 2.65 nM | IC (TGI) (MEL-28; MEL-28, 48 hours exposure, SRB): 5.3 nM | CC50 (MEL-28; read-out: LC50, MEL-28, 48 hours exposure, SRB): 10.6 nM | CC50 (SW-620; SW-620, 48 h, read-out: LC50): 79.5 nM | IC (TGI) (SW-620; SW-620, 48 hours exposure, SRB): 7.95 nM | GI50 (SW-620; SW-620, 48 hours exposure, SRB, read-out: GI50): 2.65 nM | Liver [1]: 1.06E−06 | Kidney [2]: 4.60E−08 | Skeletal [3]: 3.71E−08 | Myelo [4]: 1.03E−07 | Heart [5]: 6.43E−07
